Data set [1] can be described thus: Mouse acute food intake study. It is filed as in vivo. The note with it: male C57Bl/6 mice, s.c., dose 10 nmol/kg, cumulative food intake at 24 hr vs vehicle. The method, boiled down: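 Single-housed male C57Bl/6 mice (8-9 weeks on arrival), chow-fed, acclimated and sham-dosed ≥2 times, were fasted 6-8 h, then given vehicle or peptide subcutaneously at 5 mL/kg 1-2 h before lights out. Food intake was recorded automatically over 48 h and analysed as cumulative intake.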

A short description of data set [2]: Proteolytic resistance to FasSSIF/Pancreatin. It is filed as in vitro ADME. Conditions: simulated intestinal fluid. The gist of the method: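 Peptide (1.0 mg) in pre-warmed FasSSIF, proteolysis started with fresh FasSSIF/USP Pancreatin and held at 37 °C. Aliquots at 0, 5, 10, 15, 30 min quenched in 10% TFA; remaining intact peptide estimated by RP-HPLC peak area, UV 210 nm.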

Starred links: 1 amine or outer side, 2 acyl side, 3 side chain; linkers in the order of their positions; H or OH if unused. Non-standard residues stand in square brackets, D forms with d. Residues, ends and D or L forms follow the SMILES beside them. Groups on a side chain read outwards from the residue. *: point of attachment. C18 diacid = O=C(O)CCCCCCCCCCCCCCCCC(=O)*; γGlu = O=C(O)[C@H](CCC(=O)[*:2])N[*:1]; αMeF = C[C@](N)(Cc1ccccc1)C(=O)O; Aib = CC(C)(N)C(=O)O

Broadly, the share remaining is the share of the starting amount still present when the sample was taken. A high value points to greater stability. In the case of `CC[C@H](C)[C@H](NC(=O)[C@H](Cc1c[nH]c2ccccc12)NC(=O)[C@H](CCC(=O)O)NC(=O)[C@@H](NC(=O)[C@](C)(Cc1ccccc1)NC(=O)[C@H](CC(=O)O)NC(=O)[C@H](CCC(N)=O)NC(=O)[C@H](C)NC(=O)[C@H](C)NC(=O)[C@H](CCCCNC(=O)CC[C@H](NC(=O)CCCCCCCCCCCCCCCCC(=O)O)C(=O)O)NC(=O)[C@H](CO)NC(=O)[C@H](CC(=O)O)NC(=O)[C@H](CC(C)C)NC(=O)[C@](C)(Cc1ccccc1)NC(=O)[C@H](CCCCN)NC(=O)[C@H](CO)NC(=O)[C@@H](NC(=O)[C@H](CC(=O)O)NC(=O)[C@H](CO)NC(=O)[C@@H](NC(=O)[C@](C)(Cc1ccccc1)NC(=O)[C@H](CO)NC(=O)CNC(=O)[C@H](Cc1c[nH]cn1)NC(=O)C(C)(C)NC(=O)[C@@H](N)Cc1c[nH]cn1)[C@@H](C)O)C(C)C)C(C)C)C(=O)N[C@@H](C)C(=O)N[C@@H](CC(N)=O)C(=O)N[C@H](C(N)=O)[C@@H](C)O` [Peptide 7] (H-H[Aib]HGS[αMeF]TSDVSK[αMeF]LDSK([γGlu-C18 diacid])AAQD[αMeF]VEWIANT-NH2; N-terminus assumed), the “24 hr % Vehicle Food Intake” value in data set [1] amounted to 55.0%. In data set [2], this compound registered a share remaining at 5 min, 3.3 mg/mL of 96%; a share remaining at 10 min, 3.3 mg/mL of 98%; a share remaining at 0.25 h, 3.3 mg/mL of 96%; a share remaining at 0.5 h, 3.3 mg/mL of 94%.
